Tested on: c-myc promoter
Experiment: ChIP assay, c-myc promoter in SW480 cells
Format: cell-based, human
Conditions: 25 μM, 8 hours
Protocol: FIG. 5. COMPOUND 1 inhibits the expression of cyclin D1. • A. Cyclin D1 levels are decreased with COMPOUND 1 treatment. Western blot analysis was performed on 25 μg of SW480 whole cell lysates treated for 4, 8, or 24 hours with either 25 μM of COMPOUND 1 or control (0.5% DMSO). Immunoblotting was performed using anti-Cyclin D1 antibodies (Santa Cruz Biotechnology Inc.). • B. In vivo occupancy of cyclin D1 and c-myc promoters by CBP and p300. […] ChIP assays were performed on promoter of c-myc from SW480 cells which was treated for 8 hours with COMPOUND 1 (25 μM) or control (0.5% DMSO). CBP (AC-26, a generous gift from Dr. David Livingston, Harvard University, Boston, Mass.) or p300 (C-20, Santa Cruz Biotechnology Inc.) specific antibodies were used to evaluate the promoter occupancy by CBP or p300 in presence of COMPOUND 1 or control (DMSO) treatment.
Formaldehyde cross-linking and chromatin immunoprecipitation assays of SW480 cells were performed as described previously (Barlev et al., “Acetylation of p53 activates transcription through recruitment of coactivators/histone acetyltransferases,” Mol. Cell 8:1243-54 (2001); El-Osta et al., “Analysis of chromatin-immunopurified MeCP2-associated fragments,” Biochem. Biophys. Res. Commun. 289:733-37 (2001); Shang et al., “Formation of the androgen receptor transcription Complex,” Mol. Cell 9:601-10 (2002)). […]

`O=C1C(Cc2ccc(O)cc2)N2C(=O)CCN(C(=O)NCc3ccccc3)C2CN1Cc1cccc2ccccc12` (centres unmarked) [COMPOUND 1] was tested, and the “Association of CBP with the c-myc promoter” value was “completely and selectively blocks” and the “Level of p300 associated with the c-myc promoter” value was “increased”.

From patent US7531320B2, “Modulation of β-catenin/TCF-activated transcription” (priority 2003, dated 2009)
